Results taken from US20120196899A1, “METHODS AND PRODUCTS FOR TREATING INFLAMMATION” (Rock Creek Pharmaceuticals, Inc., priority 2010, published 2012).
“And” between values parts separate entries of the source, which are not always exact repeats. Equal entries are not always repeated. “Also recorded” adds a separate entry of the source.

Legend:
[1] = Body weights, weight gain and food consumption over 14 days after single i.v. dose; type: in vivo, Sprague-Dawley rats
Description: Body weight and food consumption was measured daily for 14 days. On day 15, urine was collected on all surviving animals. The animals were euthanized and bled via cardiac puncture, and blood was collected for analysis. Tissues were collected, weighed, evaluated for gross abnormalities, and stored in 10% neutral-buffered formalin.
All animals were observed daily.

[2] = molecular target: nAChR α3/β4 (Homo sapiens, UniProt P30926+P32297); details: in presence of 10 μM Ach
nAChR α3/β4, sequence (P32297 32-505): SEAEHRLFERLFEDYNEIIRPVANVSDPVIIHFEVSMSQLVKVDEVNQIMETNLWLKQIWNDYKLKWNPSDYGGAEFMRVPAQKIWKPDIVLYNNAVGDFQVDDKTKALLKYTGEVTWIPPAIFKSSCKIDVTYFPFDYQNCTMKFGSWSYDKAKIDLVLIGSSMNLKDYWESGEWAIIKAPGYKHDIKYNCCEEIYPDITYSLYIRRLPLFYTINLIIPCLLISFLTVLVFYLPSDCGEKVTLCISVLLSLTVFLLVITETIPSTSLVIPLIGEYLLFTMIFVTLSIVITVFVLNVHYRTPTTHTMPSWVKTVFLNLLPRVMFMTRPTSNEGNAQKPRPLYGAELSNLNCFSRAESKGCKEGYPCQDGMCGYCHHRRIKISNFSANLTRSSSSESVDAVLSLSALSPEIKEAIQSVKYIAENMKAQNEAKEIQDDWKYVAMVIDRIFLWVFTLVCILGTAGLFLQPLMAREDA
nAChR α3/β4, sequence (P30926 22-498): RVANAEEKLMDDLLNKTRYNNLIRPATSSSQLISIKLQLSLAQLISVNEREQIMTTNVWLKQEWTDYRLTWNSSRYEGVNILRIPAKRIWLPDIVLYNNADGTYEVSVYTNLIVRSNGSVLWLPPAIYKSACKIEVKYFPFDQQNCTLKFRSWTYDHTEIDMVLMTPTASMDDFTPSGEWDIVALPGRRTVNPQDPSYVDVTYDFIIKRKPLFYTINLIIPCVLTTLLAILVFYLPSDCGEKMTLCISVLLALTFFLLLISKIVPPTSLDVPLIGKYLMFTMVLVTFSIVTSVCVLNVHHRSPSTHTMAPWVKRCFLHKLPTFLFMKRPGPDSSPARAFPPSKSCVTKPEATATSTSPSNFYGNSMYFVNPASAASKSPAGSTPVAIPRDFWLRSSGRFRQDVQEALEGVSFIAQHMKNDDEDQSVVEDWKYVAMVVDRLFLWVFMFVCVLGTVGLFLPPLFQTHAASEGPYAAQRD
Description: (§1) HEK293 or CHO cells were transiently or stably transfected with the appropriate human ion channel cDNAs. Stable transfectants were selected by coexpression with the antibiotic-resistance gene(s) incorporated into the expression plasmid(s). Selection pressure was maintained by including selection antibiotics in the culture medium. HEK293 cells were cultured in Dulbecco's Modified Eagle Medium/Nutrient Mixture F-12 (D-MEM/F-12) supplemented with 10% fetal bovine serum, 100 U/mL penicillin G sodium, 100 g/mL streptomycin sulfate and appropriate selection antibiotics. CHO cells were cultured in Ham's F-12 supplemented with 10% fetal bovine serum, 100 U/mL penicillin G sodium, 100 g/mL streptomycin sulfate and appropriate selection antibiotics.
(§2) For FLIPR TETRA™ assay, cells were plated in 384-well black wall, flat clear bottom microtiter plates (Type: BD Biocoat Poly-D-Lysine Multiwell Cell Culture Plate) at 20,000 to 30,000 cells per well (384-well plate). Cells were incubated at 37° C. overnight or until the cells reached a sufficient density in the wells (near confluent monolayer) to use in fluorescence assays. For α4β2 assay, cells were incubated at 27° C. for at least 7 hours before use.
(§3) Experiments were performed with either the FLIPR calcium sensitive dye kit (Fluo-8, ABDbioquest, for nAChR α3/β4 and nAChR α7) or FLIPR membrane potential kit (Molecular Devices, for nAChR α4/β2) according to the manufacturer's instructions. Briefly, cells were incubated with 201 dye for 30 min at 37° C. After dye loading period, for the agonist assay, 5 μl of the test, vehicle, or control articles at concentration of 5 times of final concentration were applied to the cells without stimulation. For the positive allosteric modulation (PAM) and antagonist assay, after test article application, the cells were stimulated with either low dose (for PAM) or high dose (for antagonist) of Ach.
The signal elicited in the presence of the positive control agonist and allosteric modulator (10 μM Ach+1 μM epibatidine) was set to 100% and the signal from the agonist control (10 μM Ach) was set to 0%.

[3] = molecular target: T1, nAChR α4/β2 (Homo sapiens, UniProt P17787+P43681); assay: nAChR α4/β2 channel agonist assay (FLIPR membrane potential); type: cell-based; details: 0.3-1000 μM
T1 construct: host or cells: HEK293 cells, transient transfection
T1 sequence (P17787 26-502): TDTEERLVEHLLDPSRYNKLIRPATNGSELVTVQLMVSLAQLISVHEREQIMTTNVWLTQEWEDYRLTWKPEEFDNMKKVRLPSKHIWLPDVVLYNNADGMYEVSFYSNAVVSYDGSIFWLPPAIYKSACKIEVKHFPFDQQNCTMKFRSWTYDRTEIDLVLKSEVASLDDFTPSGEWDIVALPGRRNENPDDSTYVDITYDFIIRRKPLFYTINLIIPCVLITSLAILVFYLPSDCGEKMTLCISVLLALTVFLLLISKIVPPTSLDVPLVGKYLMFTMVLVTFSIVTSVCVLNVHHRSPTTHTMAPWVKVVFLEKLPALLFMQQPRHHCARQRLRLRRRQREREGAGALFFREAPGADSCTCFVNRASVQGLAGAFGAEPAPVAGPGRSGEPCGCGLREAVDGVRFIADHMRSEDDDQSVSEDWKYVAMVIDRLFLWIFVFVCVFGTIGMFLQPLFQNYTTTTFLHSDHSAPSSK
T1 sequence (P43681 29-627): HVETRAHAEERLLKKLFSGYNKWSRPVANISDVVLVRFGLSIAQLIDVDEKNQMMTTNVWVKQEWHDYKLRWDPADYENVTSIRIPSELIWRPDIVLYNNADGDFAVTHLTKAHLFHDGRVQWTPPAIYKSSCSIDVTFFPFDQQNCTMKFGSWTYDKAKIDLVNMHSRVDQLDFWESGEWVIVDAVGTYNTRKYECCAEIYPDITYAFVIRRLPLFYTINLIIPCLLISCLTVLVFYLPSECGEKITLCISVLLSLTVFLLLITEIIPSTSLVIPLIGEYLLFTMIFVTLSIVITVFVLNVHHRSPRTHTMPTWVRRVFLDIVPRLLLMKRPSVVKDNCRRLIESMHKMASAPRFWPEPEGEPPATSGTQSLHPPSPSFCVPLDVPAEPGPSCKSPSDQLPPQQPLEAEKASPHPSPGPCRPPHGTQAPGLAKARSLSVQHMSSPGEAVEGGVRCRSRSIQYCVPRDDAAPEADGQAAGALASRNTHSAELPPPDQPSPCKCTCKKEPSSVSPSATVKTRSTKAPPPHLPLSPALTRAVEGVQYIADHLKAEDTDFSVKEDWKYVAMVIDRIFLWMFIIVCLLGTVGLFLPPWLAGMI
Description: The following three (3) channels were evaluated: • 1. nAChR α3/β4 (encoded by the human CHRNA3 and CHRNB4 gene and stably expressed in CHO cells); • 2. nAChR α4/β2 (CHRNA4 and CHRNB2 gene and transiently expressed in HEK293 cells); and • 3. nAChR α7 (encoded by the human nicotinic α7 gene coexpressed in CHO cells with the chaperone RIC-3 encoded by the human RIC3 gene).
The ability of each test article to act as an agonist, a positive allosteric modulator or antagonist of three nAChR receptor channels was evaluated in the presence of 0.1 atropine. Both test articles were evaluated for responses on each nAChR channel at eight (8) concentrations: 0.3, 1, 3, 10, 30, 100, 300, and 1000 μM (n=4 for each concentration).
as §1, §2, §3
Concentration-response data was fitted to a Hill equation of the following form:
where Base is the response at low concentrations of test article, Max is the maximum response at high concentrations, xhalf is the EC50 or IC50, the concentration of test article producing either half-maximal activation or inhibition, and rate is the Hill coefficient. Nonlinear least squares fits were made assuming a simple one-to-one binding model.
The ability of each test article to act as an agonist of the nAChR carried out in the absence of the positive control agonist. The signal elicited in the presence of the positive control agonist (30 μM Ach) was set to 100% and the signal from the vehicle control (HBPS) was set to 0%. Values were considered significant (bold font) if the test article mean was three or more standard deviations above from the vehicle control mean.

[4] = Urinalysis, day 15; type: in vivo, Sprague-Dawley rats
Source text: On day 15, urine was collected on all surviving animals for urinalysis. The animals were euthanized and bled via cardiac puncture. Blood was collected for hematology, clinical chemistry, and coagulation analysis. Tissues were collected, weighed, and stored in 10% neutral-buffered formalin for possible future analysis.
There were no notable differences between the active treatment groups and controls and the observations are all consistent with those expected for this species.

[5] = anatabine 0.1 mg/kg single i.v., Male
[6] = anatabine 0.75 mg/kg single i.v., Female
[7] = anatabine 0.75 mg/kg single i.v., Male
[8] = Anatabine dose 0.1 mg/kg, individual animals B1-B10 (M and F)
[9] = Anatabine dose 0.1 mg/kg, individual animals B1-B10 (M and F), 0.1 mg/kg
[10] = Anatabine dose 0.75 mg/kg, individual animals C1-C10 (M and F)
[11] = Anatabine dose 0.75 mg/kg, individual animals C1-C10 (M and F), 0.75 mg/kg

## C1=CCC(c2cccnc2)NC1 (racemic) [Anatabine, 1,2,3,6-tetrahydro-[2,3′]bipyridinyl]
[1]; 0.75 mg/kg, M, individual rats
  day 1 B.W.: 242.7 g and 251.4 g and 231.9 g and 226.8 g and 239.8 g
  day 2 B.W.: 259.7 g and 240.0 g and 232.1 g and 247.2 g
  day 3 B.W.: 261.1 g and 269.1 g and 252.0 g and 243.0 g and 256.1 g
  day 6 B.W.: 282.4 g and 287.6 g and 268.2 g (2×) and 281.3 g
  day 7 B.W.: 294.5 g and 302.9 g and 281.8 g and 274.1 g and 287.1 g
  day 8 B.W.: 300.0 g and 310.6 g and 293.4 g and 284.2 g
  day 9 B.W.: 307.6 g and 319.8 g and 298.8 g and 296.2 g and 298.5 g
  day 10 B.W.: 317.2 g and 331.9 g and 307.9 g and 303.8 g and 306.8 g
  day 11 B.W.: 334.6 g and 339.8 g and 329.4 g and 316.1 g and 321.9 g
  day 12 B.W.: 327.6 g and 325.4 g and 322.5 g and 324.8 g and 331.1 g
  day 13 B.W.: 335.6 g and 338 g and 330 g and 326 g (2×)
  day 14 B.W.: 351.9 g and 357.9 g and 345.1 g and 339 g and 335.9 g
[1]; 0.75 mg/kg, M, individual rats, second one headed day 4
  day 4 B.W.: 282.3 g and 287.6 g and 269.9 g and 262.0 g and 275.7 g
[1]; 0.75 mg/kg, M, individual rats, day 4
  day 4 B.W.: 275.7 g and 286.0 g and 268.0 g and 256.3 g and 271.2 g
[1]; anatabine 0.1 mg/kg single i.v., Female
  Mean weigth increase by day 14: 39.0 g
[1]; [5]
  Mean food consumption/day: 31.0 g
  Mean weigth increase by day 14: 132.5 g
[1]; [6]
  Mean food consumption/day: 19.7 g
  Mean weigth increase by day 14: 43.1 g
[1]; [7]
  Mean food consumption/day: 27.8 g
  Mean weigth increase by day 14: 111.6 g
[2]
  potentiation: Neither nicotine nor anatabine potentiated the activity
[3]
  agonist activity: displays full agonist activity
[4]; Anatabine dose 0.1 mg/kg, animal B9 (F), unit not given
  Urinalysis VOLUME: 0.5
[4]; [8]
  Urinalysis CLARITY: HAZY
  Urinalysis COLOR: YELLOW
  Urinalysis GLUCOSE: NEGATIVE
  Urinalysis UROBILINOGEN: NORMAL
  Urinalysis VOLUME: <0.5 mL
[4]; [9]
  Urinalysis BILIRUBIN: NEGATIVE
  Urinalysis BLOOD: TRACE; also recorded: NEGA-
  Urinalysis KETONES: NEGATIVE
  Urinalysis PROTEIN: TRACE; also recorded: NEGA-
  Urinalysis SPEC GRAVITY: 1.027 (2×) and 1.039 (2×) and 1.048 and 1.036 and 1.045 and 1.017
  Urinalysis pH: 8.5 and 7.5 (4×) and 7 (2×) and 8
[4]; [10]
  Urinalysis CLARITY: HAZY
  Urinalysis COLOR: YELLOW
  Urinalysis GLUCOSE: NEGATIVE
  Urinalysis UROBILINOGEN: NORMAL
[4]; [11]
  Urinalysis BILIRUBIN: NEGATIVE
  Urinalysis BLOOD: TRACE; also recorded: NEGA-
  Urinalysis KETONES: NEGATIVE
  Urinalysis PROTEIN: TRACE
  Urinalysis SPEC GRAVITY: 1.05 and 1.051 and 1.043 and 1.049 and 1.016 and 1.039 and 1.036 and 1.014
  Urinalysis VOLUME: <0.5 mL (8×) and <0.25 mL
  Urinalysis pH: 7 (3×) and 8 (3×) and 7.5 and 6
